4 molecules from ChEMBL document CHEMBL1144118, “New antimycobacterial saponin from Colubrina retusa” (1999) can be followed below.

This assay deals with Mycobacterium intracellulare. Description: Antimycobacterial activity against Mycobacterium intracellular ATCC 23068 after 48 hrs. In kind it is functional. The following applies: for MIC: ATCC 23068, 48 h.

Molecules are shown by their SMILES. ≈ marks a conversion by molar mass, not a printed value. Calls of active or inactive are those of the source.

One may read the MIC as the smallest concentration in the dilution series that meets the test's criterion for growth inhibition. A high value points to a need for much substance.

`CC(C)=C[C@H]1C[C@](C)(O)[C@@H]2[C@H]3CC[C@@H]4[C@@]5(C)CC[C@H](O[C@@H]6OC[C@H](O)[C@H](O[C@@H]7O[C@H](CO)[C@@H](O)[C@H](O)[C@H]7OC(=O)/C=C/c7ccc(O)cc7)[C@H]6O[C@@H]6O[C@@H](CO)[C@H](O)[C@H]6O)C(C)(C)[C@@H]5CC[C@@]4(C)[C@@]34CO[C@@]2(C4)O1` displayed a minimal inhibitory concentration (MIC) of 50 µg/mL (≈ 47.8 µM).
Consider `CC(C)=C[C@H]1C[C@](C)(O)[C@@H]2[C@H]3CC[C@@H]4[C@@]5(C)CC[C@H](O[C@@H]6OC[C@H](O)[C@H](O[C@@H]7O[C@H](CO)[C@@H](O)[C@H](O)[C@H]7O)[C@H]6O[C@@H]6O[C@@H](CO)[C@H](O)[C@H]6O)C(C)(C)[C@@H]5CC[C@@]4(C)[C@@]34CO[C@@]2(C4)O1`, for which the result was inactive.
Molecule `CC(C)=C[C@H]1C[C@](C)(O)[C@@H]2[C@H]3CC[C@@H]4[C@@]5(C)CC[C@H](O[C@@H]6OC[C@H](O)[C@H](O[C@@H]7O[C@H](CO)[C@@H](O)[C@H](OC(=O)/C=C/c8ccc(O)cc8)[C@H]7O)[C@H]6O[C@@H]6O[C@@H](CO)[C@H](O)[C@H]6O)C(C)(C)[C@@H]5CC[C@@]4(C)[C@@]34CO[C@@]2(C4)O1` showed an MIC of 10 µg/mL (≈ 9.57 µM).
In turn, `CO[C@H]1/C=C/O[C@@]2(C)Oc3c(C)c(O)c4c(O)c(c(/C=N/N5CCN(C)CC5)c(O)c4c3C2=O)NC(=O)/C(C)=C\C=C\[C@H](C)[C@H](O)[C@@H](C)[C@@H](O)[C@@H](C)[C@H](OC(C)=O)[C@@H]1C` [RIFAMPIN] came in with an MIC of 0.3 µg/mL (≈ 0.365 µM).
